System: NCI-H196 complex spheroid viability
Test: Anticancer human tumor NCI-H196 cell line growth inhibition [LSD1];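 note: spheroids exposed to agents for 7 days before readout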;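 for viability, T/C: 100% = DMSO vehicle control viability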
Conditions: for IC50: curve of first compound; for viability, T/C: stronger effect = lower value
Summary of the method: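 Drug combinations with the LSD1 inhibitor iadademstat tested on tumor cells co-cultured as spheroids with endothelial cells and mesenchymal stem cells. Concentrations descended in half-log increments from clinical Cmax or 10 microM.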

[1] = second compound 0.1 µM, first compound 0.0316 µM
[2] = second compound 0.1 µM, first compound 0.1 µM
[3] = second compound 0.1 µM, first compound 0.316 µM
[4] = second compound 0.1 µM, first compound 1 µM
[5] = second compound 0.316 µM, first compound 0.0316 µM
[6] = second compound 0.316 µM, first compound 0.1 µM
[7] = second compound 0.316 µM, first compound 0.316 µM
[8] = second compound 0.316 µM, first compound 1 µM
[9] = second compound 1 µM, first compound 0.0316 µM
[10] = second compound 1 µM, first compound 0.1 µM
[11] = second compound 1 µM, first compound 0.316 µM
[12] = second compound 1 µM, first compound 1 µM
[13] = second compound 3.16 µM, first compound 0.0316 µM
[14] = second compound 3.16 µM, first compound 0.1 µM
[15] = second compound 3.16 µM, first compound 0.316 µM
[16] = second compound 3.16 µM, first compound 1 µM
[17] = second compound 10 µM, first compound 0.0316 µM
[18] = second compound 10 µM, first compound 0.1 µM
[19] = second compound 10 µM, first compound 0.316 µM
[20] = second compound 10 µM, first compound 1 µM

With `COc1ccc([C@@H](O)c2cc(-c3ncnc4cc(N5CCOCC5)ccc34)c(F)cc2Cl)nn1` + NC1CC1c1ccc(-c2cccc(O)c2)cc1 the IC50 (second compound 0.1 µM) was greater than 10000 nM, the IC50 (second compound 0.316 µM) was greater than 10000 nM and the IC50 (second compound 1 µM) was greater than 10000 nM. The IC50 (second compound 3.16 µM) was greater than 10000 nM, the IC50 (second compound 10 µM) was 6480 nM and the viability, T/C [1] was 106%. For the same molecule, the viability, T/C [2] was 98.6%, the viability, T/C [3] was 79.1% and the viability, T/C [4] was 68.4%. It also gave a viability, T/C (second compound 0.1 µM, first compound 3.16 µM) of 64.2%, a viability, T/C (second compound 0.1 µM, first compound 10 µM) of 52% and a viability, T/C [5] of 92%. It also gave a viability, T/C [6] of 90%, a viability, T/C [7] of 82.7% and a viability, T/C [8] of 71%. It also gave a viability, T/C (second compound 0.316 µM, first compound 3.16 µM) of 60.7%, a viability, T/C (second compound 0.316 µM, first compound 10 µM) of 50% and a viability, T/C [9] of 102%. It also gave a viability, T/C [10] of 94.7%, a viability, T/C [11] of 90% and a viability, T/C [12] of 69.4%. For the same molecule, the viability, T/C (second compound 1 µM, first compound 3.16 µM) was 62.2%, the viability, T/C (second compound 1 µM, first compound 10 µM) was 50.1% and the viability, T/C [13] was 94.9%. For the same molecule, the viability, T/C [14] was 105%, the viability, T/C [15] was 90.8% and the viability, T/C [16] was 68.2%. The viability, T/C (second compound 3.16 µM, first compound 3.16 µM) was 59.9%, the viability, T/C (second compound 3.16 µM, first compound 10 µM) was 48.2% and the viability, T/C [17] was 103%. The viability, T/C [18] was 100%, the viability, T/C [19] was 86.2% and the viability, T/C [20] was 72.8%. For the same molecule, the viability, T/C (second compound 10 µM, first compound 3.16 µM) was 59.2% and the viability, T/C (second compound 10 µM, first compound 10 µM) was 44.7%.
`Nc1ncn(C2CC(O)C(CO)S2)c(=O)n1` (stereo not given) + NC1CC1c1ccc(-c2cccc(O)c2)cc1 showed an IC50 (second compound 0.1 µM) greater than 300 nM, an IC50 (second compound 0.316 µM) greater than 300 nM and an IC50 (second compound 1 µM) greater than 300 nM. For the same molecule, the IC50 (second compound 3.16 µM) was greater than 300 nM, the IC50 (second compound 10 µM) was greater than 300 nM and the viability, T/C (second compound 0.1 µM, first compound 0.000949 µM) was 98.2%. It also gave a viability, T/C (second compound 0.1 µM, first compound 0.003 µM) of 105%, a viability, T/C (second compound 0.1 µM, first compound 0.00949 µM) of 108% and a viability, T/C (second compound 0.1 µM, first compound 0.03 µM) of 101%. It also gave a viability, T/C (second compound 0.1 µM, first compound 0.0949 µM) of 108%, a viability, T/C (second compound 0.1 µM, first compound 0.3 µM) of 102% and a viability, T/C (second compound 0.316 µM, first compound 0.000949 µM) of 107%. The viability, T/C (second compound 0.316 µM, first compound 0.003 µM) was 111%, the viability, T/C (second compound 0.316 µM, first compound 0.00949 µM) was 112% and the viability, T/C (second compound 0.316 µM, first compound 0.03 µM) was 113%. It also gave a viability, T/C (second compound 0.316 µM, first compound 0.0949 µM) of 112%, a viability, T/C (second compound 0.316 µM, first compound 0.3 µM) of 113% and a viability, T/C (second compound 1 µM, first compound 0.000949 µM) of 103%. The viability, T/C (second compound 1 µM, first compound 0.003 µM) was 110%, the viability, T/C (second compound 1 µM, first compound 0.00949 µM) was 113% and the viability, T/C (second compound 1 µM, first compound 0.03 µM) was 109%. The viability, T/C (second compound 1 µM, first compound 0.0949 µM) was 134%, the viability, T/C (second compound 1 µM, first compound 0.3 µM) was 116% and the viability, T/C (second compound 3.16 µM, first compound 0.000949 µM) was 101%. It also gave a viability, T/C (second compound 3.16 µM, first compound 0.003 µM) of 102%, a viability, T/C (second compound 3.16 µM, first compound 0.00949 µM) of 106% and a viability, T/C (second compound 3.16 µM, first compound 0.03 µM) of 99.3%. It also gave a viability, T/C (second compound 3.16 µM, first compound 0.0949 µM) of 117%, a viability, T/C (second compound 3.16 µM, first compound 0.3 µM) of 119% and a viability, T/C (second compound 10 µM, first compound 0.000949 µM) of 101%. It also gave a viability, T/C (second compound 10 µM, first compound 0.003 µM) of 109%, a viability, T/C (second compound 10 µM, first compound 0.00949 µM) of 103% and a viability, T/C (second compound 10 µM, first compound 0.03 µM) of 102%. It also gave a viability, T/C (second compound 10 µM, first compound 0.0949 µM) of 103% and a viability, T/C (second compound 10 µM, first compound 0.3 µM) of 99.5%.
Work on `O=C(C=Cn1cnc(-c2cc(C(F)(F)F)cc(C(F)(F)F)c2)n1)NNc1cnccn1` + NC1CC1c1ccc(-c2cccc(O)c2)cc1 yielded an IC50 (second compound 0.1 µM) of less than 3.16 nM, an IC50 (second compound 0.316 µM) of less than 3.16 nM and an IC50 (second compound 1 µM) of less than 3.16 nM. For the same molecule, the IC50 (second compound 3.16 µM) was less than 3.16 nM, the IC50 (second compound 10 µM) was less than 3.16 nM and the viability, T/C (second compound 0.1 µM, first compound 0.00316 µM) was 32.5%. For the same molecule, the viability, T/C (second compound 0.1 µM, first compound 0.01 µM) was 27.1%, the viability, T/C [1] was 19.8% and the viability, T/C [2] was 14.6%. For the same molecule, the viability, T/C [3] was 10.4%, the viability, T/C [4] was 7.16% and the viability, T/C (second compound 0.316 µM, first compound 0.00316 µM) was 33.1%. For the same molecule, the viability, T/C (second compound 0.316 µM, first compound 0.01 µM) was 25.6%, the viability, T/C [5] was 20.7% and the viability, T/C [6] was 12.4%. The viability, T/C [7] was 10.7%, the viability, T/C [8] was 8.26% and the viability, T/C (second compound 1 µM, first compound 0.00316 µM) was 31.3%. For the same molecule, the viability, T/C (second compound 1 µM, first compound 0.01 µM) was 31.5%, the viability, T/C [9] was 19.6% and the viability, T/C [10] was 12.1%. For the same molecule, the viability, T/C [11] was 10.6%, the viability, T/C [12] was 9.55% and the viability, T/C (second compound 3.16 µM, first compound 0.00316 µM) was 45.6%. The viability, T/C (second compound 3.16 µM, first compound 0.01 µM) was 31.5%, the viability, T/C [13] was 15.9% and the viability, T/C [14] was 14%. It also gave a viability, T/C [15] of 10.2%, a viability, T/C [16] of 10.3% and a viability, T/C (second compound 10 µM, first compound 0.00316 µM) of 36.2%. It also gave a viability, T/C (second compound 10 µM, first compound 0.01 µM) of 29.2%, a viability, T/C [17] of 18.3% and a viability, T/C [18] of 15.9%. For the same molecule, the viability, T/C [19] was 12.4% and the viability, T/C [20] was 11.9%.

From PubChem BioAssay AID1918958 (Molecular Pharmacology Branch, DTP, NCI, 2023)
